{
  "source": "patent US20050113452A1",
  "about": "“Composition and dosage form for sustained effect of levodopa” (priority 2003, published 2005)",
  "origin": "cited, not measured here",
  "tested_on": "Parkinson's disease patients",
  "settings": "especially when the two drugs are delivered together, Camicioli et al. 2001",
  "data": [
    {"smiles": "COC(=O)C(c1ccccc1)C1CCCCN1", "note": "(stereo not shown) [Methylphenidate, methylphenidate]", "values": [
      {"measurement": "Motor effects when used with levodopa", "value": "severe dyskinesia"}
    ]}
  ]
}
